Laboratory results: article PMC12036875, “Mitochondria-targeting natural product rhein conjugated with dichloroacetate as the dual inhibitor of glycolysis and oxidative phosphorylation to off energize cancer cells and induce ROS storm” (Theranostics, 2025)

Tests used:
[1] = system: mitochondria of 4T1 cells; assay: Cell uptake and organelle localization (CLSM); assay type: cell-based, Mouse; conditions: 24 h
Text: In order to evaluate the positive effect of the conjugation of rhein and DCA on anti-cancer aspect, cellular uptake of Rhein-DCA conjugate in 4T1 cells was first examined by confocal laser scanning microscope (CLSM). Based on the fluorescence properties of Rhein-DCA conjugate, green fluorescence signal indicated its distribution within the cells. […] The green fluorescence of rhein was highly overlapped with the red fluorescence of mitochondria (Mito tracker red) and merged into yellow fluorescence in rhein and Rhein-DCA groups.
4T1 cells were seeded in confocal dishes at a density of 10 × 10^4 cells per dish and cultured in the incubator for 24 h. And the cells were further treated with Rhein-DCA conjugate at a concentration of 6.25 μM for 0, 2, 6, 12 or 24 h, respectively. Thereafter, the cells were washed twice with PBS and stained with Hoechst 33342 (10 μg/mL) for 15 min in the dark at room temperature, followed by another two washes with PBS. Finally, the fluorescence intensity of cells was monitored with confocal microscope with excitation wavelengths (Ex) of 488 nm, emission wavelengths (Em) of 525 ± 25 nm, and Ex of 405 nm, Em of 447 ± 30 nm, respectively. […]

4T1 cells = assay: Intracellular and extracellular lactate determination; assay type: cell-based, Mouse; conditions: 6.25 μM, 24 h
Protocol: Next, the end product of glycolysis, lactate, was analyzed in 4T1 cells to further confirm the efficacy of the Rhein-DCA conjugate in blocking glycolytic metabolism. […] Lactate will be released from cells and condense in the TME due to the sustained aerobic glycolysis. To determine whether the decline in intracellular lactate level was caused by an increased extracellular secretion or a disconnect in glycolysis pathway, we further detected the lactate content in the culture medium (Figure 2E). The changes in extracellular lactate level were consistent with those observed intracellularly across the tested groups.
4T1 cells were seeded into 6-well plates at a density of 10 × 10^4 cells per well and cultured for 24 h. Cells were exposed to PBS, rhein, DCA, R + D and Rhein-DCA conjugate at a concentration of 6.25 μM for 24 h. (1) Medium: The medium from different groups was subjected to centrifugation at 9391 G for 10 min, 100 μL of supernatant was obtained, and 1 mL of extraction solution I was added. (2) Cells: After being washed twice with PBS, cells were harvested and suspended in extraction solution I (1 mL) for further lysis with sonication in ice bath (power 300 W, the duration of sonication is 3 s, the interval duration of 7 s, total sonication time of 3 min). […] Finally, the absorption value of each sample was detected with microplate reader at 570 nm.

[2] = Pharmacokinetic study after oral administration; assay type: in vivo, Sprague-Dawley (SD) rats; conditions: SD rats, I.G. 20 mg/kg, mean ± S.D., n = 3
Protocol: HPLC was conducted to evaluate the absorption and distribution of Rhein-DCA conjugate in […] after oral administration. Rhein-DCA was orally administered to Sprague-Dawley (SD) rats at 20 mg/kg, and the concentration of the drug in the blood samples was serially measured at predefined time points.
HPLC was used to evaluate the absorption and distribution of Rhein-DCA in […] after oral administration. Rhein-DCA was orally administered to Sprague-Dawley (SD) rats at 20 mg/kg. and the blood samples were serially collected at predefined time points (0.5, 1.5, 2, 3, 4, 5, 6, 8, 10 and 24 h). Centrifuge the blood at 3000 G for 10 min to separate serum, and the serum was mixed with methanol (1:3, v/v), vortexed for 3 min, and centrifuged at 13000 G for 10 min. The supernatant was filtered through a 0.22 µm membrane for HPLC assay. Pharmacokinetic parameters were derived using DAS 2.0 software with non-compartmental analysis (NCA).

[3] = Tissue distribution after oral administration; assay type: in vivo; conditions: 4T1-bearing Balb/c mice, oral 20 mg/kg
Protocol: 4T1-bearing Balb/c mice were orally administered with Rhein-DCA (20 mg/kg), major organs (heart, liver, spleen, lung, kidney) and tumor tissues were harvested at 2, 6, and 24 h after administration. […] The Rhein-DCA conjugate could be absorbed rapidly and broadly distributed in major organs tissue after administration.
4T1-bearing Balb/c mice were orally administered with Rhein-DCA (20 mg/kg), major organs (heart, liver, spleen, lung, kidney) and tumor tissues were harvested and weighed at 2, 6, and 24 h after administration. Each organ was homogenized with sonication in ice bath (power 400 W, the duration of sonication is 3 s, the interval duration of 3 s, total sonication time of 20 min). Centrifuge the homogenate at 13000 G for 10 min at 4°C to obtain the supernatant for HPLC.

In the case of `O=C(OCCOC(=O)C(Cl)Cl)c1cc(O)c2c(c1)C(=O)c1cccc(O)c1C2=O` [Rhein-DCA], the “co-localization with lysosomes (Lyso tracker red) and endoplasmic reticulum (ER tracker red)” value [1] is reported as “almost did not co-localize”, the intracellular lactate content (4T1 cells) is reported as “noticeable descent” and the CL [2] is reported as 37.5 mL/min/kg. It also gave a Vd [2] of 17.11 ± 8.08 L/kg, an AUC(0-inf) ([2]; Sprague-Dawley, rat, serum, po) of 8980 ng·h/mL and an AUC(0-t) ([2]; Sprague-Dawley, rat, serum, po) of 8220 ± 330 ng·h/mL. The Cmax ([2]; Sprague-Dawley, rat, serum, po) was 2680 ng/mL, the Tmax ([2]; Sprague-Dawley, rat, serum, po) was 1.5 h and the half-life ([2]; Sprague-Dawley, rat, serum, po) was 5.54 h. The intra-tumoral retention [3] was “remaining quantifiable up to 24 h”, the “systemic clearance from major organs by 24 h” value [3] was “extremely completed” and the Tmax ([3]; mouse, tumor, sampled at 2, 6, 24 h, read-out: time of peak concentration in tumors) was 6 h.
